# Assay results reported in patent US7642269B2, “Pyrrolo[3,2-B]pyridine derivatives and processes for the preparation thereof” (Yuhan Corporation, priority 2005, dated 2010).
# Where a name gives a salt, the structure may show the parent alone.
# Target: T1, H^+/K^+-ATPase (Sus scrofa, UniProt P19156)
# T1 construct: used as an enzyme source of the in vitro enzyme reaction assay of proton pump; from tissue; host or cells: hog gastric fundic mucosa (membrane vesicles, lyophilized)
# Test: Inhibitory effects on proton pump (H^+/K^+-ATPase) activity, hog gastric vesicles
# Format: biochemical
# Details: K^+ stimulated H^+/K^+-ATPase activity, hog gastric vesicle, Pi measured at 620 nm
# Method: Preparation of Gastric Proton Pump Vesicles
# The hog fundic regions containing parietal and peptic cells were scraped with slide-glass. The collected cells were suspended in 10 ml of 0.25M sucrose buffer and homogenized using a tight-fitting Teflon-glass homogenizer. The homogenate was centrifuged for 35 min at 8,000 rpm and the pellet was discarded. The supernatant was further centrifuged for 75 min at 25,000 rpm. The resulting pellets were re-suspended in the sucrose buffer (10 ml), and then the suspension was laid onto discontinuous density gradients consisting of 0.25M sucrose buffer and isolation medium containing 9% Ficoll (w/w). After being centrifuged for 3 hours and 15 minutes at 100,000×g, the material at the interface of sucrose buffer and Ficoll solution was collected and then centrifuged for 40 minutes at 100,000×g. The resulting pellets were re-suspended in 1 ml of 5 mM Hepes/Tris buffer (pH 6.1). This material was lyophilized and stored at −70° C. and used as an enzyme source of the in vitro enzyme reaction assay of proton pump.
# 1-2. Measurement of Inhibitory Effects on Proton Pump (H+/K+-ATPase) activity
# The inhibitory effects of the compounds of the present invention against proton pump activity were evaluated in 96-well plate. In this assay, the K^+ specific H^+/K^+-ATPase activity was calculated based on the difference between the activity of H^+/K^+-ATPase activity with K^+ and without K^+ ion. In 96-well plate, 1% dimethylsulfoxide (DMSO) in buffer was added to negative and positive control groups and the diluted compounds of the present invention in buffer were added to test group. All assays were performed in 100 μl reaction volume at room temperature, and the hog gastric vesicle was kept in ice before use. At the beginning of the reaction, 10 μl of reaction buffer containing 1% DMSO was added to the negative and positive control groups and to each concentration of compounds in the test group. Then lyophilized vesicle in 5 mM Pipes/Tris buffer (pH 6.1) was pre-incubated in the presence of various concentrations of test compounds. After a 5 minute incubation, negative and positive buffers were respectively added to the previous reaction mixture. As the substrate, ATP was added to the reaction buffer, and incubated for 30 minutes at 37° C. Enzymatic activity was stopped by the addition of colorimetric reagent (2× malachite green, 1× ammonium molybdate, 1× polyvinyl alcohol, 2× H2O) and the amount of mono phosphate (Pi) in the reaction was measured at 620 nm using the micro plate reader (Genios Pro, TECAN). The difference between the Pi production with K^+ and without K^+ is taken as K^+ stimulated H^+/K^+-ATPase activity.
# T1 sequence (P19156 2-1034 limits assumed): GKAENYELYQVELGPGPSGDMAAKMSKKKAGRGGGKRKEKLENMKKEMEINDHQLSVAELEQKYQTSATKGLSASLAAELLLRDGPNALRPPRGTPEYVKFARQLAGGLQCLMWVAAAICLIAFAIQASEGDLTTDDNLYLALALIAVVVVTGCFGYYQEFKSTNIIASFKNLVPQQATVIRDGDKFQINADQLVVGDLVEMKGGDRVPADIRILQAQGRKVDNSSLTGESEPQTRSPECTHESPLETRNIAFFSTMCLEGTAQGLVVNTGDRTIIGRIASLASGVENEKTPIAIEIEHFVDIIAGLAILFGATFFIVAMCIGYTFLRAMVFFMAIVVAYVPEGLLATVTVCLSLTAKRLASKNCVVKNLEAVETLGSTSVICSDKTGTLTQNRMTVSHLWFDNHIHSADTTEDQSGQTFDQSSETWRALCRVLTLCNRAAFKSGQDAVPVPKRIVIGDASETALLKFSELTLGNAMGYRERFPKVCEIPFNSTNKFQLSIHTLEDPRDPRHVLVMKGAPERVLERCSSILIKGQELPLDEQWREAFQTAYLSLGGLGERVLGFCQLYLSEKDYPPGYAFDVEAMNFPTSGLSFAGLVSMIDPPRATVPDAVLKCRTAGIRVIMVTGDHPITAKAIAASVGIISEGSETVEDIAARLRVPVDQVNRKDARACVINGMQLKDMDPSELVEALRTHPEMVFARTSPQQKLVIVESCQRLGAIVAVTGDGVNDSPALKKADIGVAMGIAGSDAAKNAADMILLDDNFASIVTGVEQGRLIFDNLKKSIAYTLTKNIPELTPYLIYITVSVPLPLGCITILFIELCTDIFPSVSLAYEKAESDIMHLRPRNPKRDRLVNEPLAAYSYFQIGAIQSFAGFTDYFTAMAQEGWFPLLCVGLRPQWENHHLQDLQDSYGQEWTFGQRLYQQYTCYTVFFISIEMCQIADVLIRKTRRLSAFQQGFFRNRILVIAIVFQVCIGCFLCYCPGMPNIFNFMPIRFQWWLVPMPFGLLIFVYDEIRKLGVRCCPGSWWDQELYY
# T1 sequence (P18434 whole entry partner): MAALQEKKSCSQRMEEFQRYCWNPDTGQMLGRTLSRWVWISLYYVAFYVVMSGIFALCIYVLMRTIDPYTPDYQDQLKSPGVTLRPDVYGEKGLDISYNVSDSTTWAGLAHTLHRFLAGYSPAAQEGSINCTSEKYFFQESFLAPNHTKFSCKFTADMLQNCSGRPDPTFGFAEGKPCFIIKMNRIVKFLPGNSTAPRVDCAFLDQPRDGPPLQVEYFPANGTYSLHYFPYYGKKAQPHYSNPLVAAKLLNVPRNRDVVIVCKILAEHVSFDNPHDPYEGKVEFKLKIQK
row,Structure (SMILES),IC50
1,"Cc1c(C)n(Cc2ccccc2)c2c(OCc3ccc4c(c3)OCO4)ccnc12 [Example 115, 7-(benzo[1,3]dioxol-5-ylmethoxy)-1-benzyl-2,3-dimethyl-1H-pyrrolo[3,2-b]pyridine hydrochloride]",130 nM
2,"Cc1c(C)n(Cc2ccc3ccccc3c2)c2c(OCc3ccc(F)cc3)ccnc12 [Example 37, 7-(4-fluorobenzyloxy)-2,3-dimethyl-1-(naphthalen-2-ylmethyl)-1H-pyrrolo[3,2-b]pyridine hydrochloride]",1260 nM
3,"Cc1cccc(Cn2c(C)c(C)c3nccc(N4CCc5ccccc5C4)c32)c1 [Example 12, 1-(3-methylbenzyl)-7-(1,2,3,4-tetrahydroisoquinolin-2-yl)-2,3-dimethyl-1H-pyrrolo[3,2-b]pyridine hydrochloride]",970 nM
4,"Cc1c(C)n(Cc2cccc(F)c2)c2c(OCc3ccc(Cl)cc3)ccnc12 [Example 93, 7-(4-chlorobenzyloxy)-1-(3-fluorobenzyl)-2,3-dimethyl-1H-pyrrolo[3,2-b]pyridine hydrochloride]",50 nM
5,"Cc1c(C)n(Cc2ccc(C(C)(C)C)cc2)c2c(OCc3ccc(Cl)cc3)ccnc12 [Example 79, 1-(4-tert-butylbenzyl)-7-(4-chlorobenzyloxy)-2,3-dimethyl-1H-pyrrolo[3,2-b]pyridine hydrochloride]",1590 nM
6,"Cc1ccc(Cn2c(C)c(C)c3nccc(OCc4ccc(F)cc4)c32)cc1 [Example 34, 7-(4-fluorobenzyloxy)-2,3-dimethyl-1-(4-methylbenzyl)-1H-pyrrolo[3,2-b]pyridine hydrochloride]",230 nM
7,"COC(=O)CCn1c(C)c(C)c2nccc(OCc3ccc(F)cc3)c21 [Example 57, 1-[2-(methoxycarbonyl)ethyl]-7-(4-fluorobenzyloxy)-2,3-dimethyl-1H-pyrrolo[3,2-b]pyridine hydrochloride]",270 nM
8,"Cc1c(C)n(CCC2OCCO2)c2c(N3CCc4ccccc4C3)ccnc12 [Example 14, 1-[2-(1,3-dioxolan-2-yl)ethyl]-7-(1,2,3,4-tetrahydroisoquinolin-2-yl)-2,3-dimethyl-1H-pyrrolo[3,2-b]pyridine hydrochloride]",530 nM
9,"COCCn1c(C)c(C)c2nccc(OCc3ccc4c(c3)OCO4)c21 [Example 99, 7-(benzo[1,3]dioxol-5-ylmethoxy)-1-(2-methoxyethyl)-2,3-dimethyl-1H-pyrrolo[3,2-b]pyridine hydrochloride]",630 nM
10,"Cc1c(C)n(Cc2ccc(F)cc2)c2c(OCc3ccc(Cl)cc3)ccnc12 [Example 91, 7-(4-chlorobenzyloxy)-1-(4-fluorobenzyl)-2,3-dimethyl-1H-pyrrolo[3,2-b]pyridine hydrochloride]",460 nM
11,"Cc1c(C)n(Cc2ccc(Cl)cc2)c2c(N3CCc4ccccc4C3)ccnc12 [Example 1, 1-(4-chlorobenzyl)-7-(1,2,3,4-tetrahydroisoquinolin-2-yl)-2,3-dimethyl-1H-pyrrolo[3,2-b]pyridine hydrochloride]",650 nM
12,"C=CCn1c(C)c(C)c2nccc(N3CCc4ccccc4C3)c21 [Example 7, 1-allyl-7-(1,2,3,4-tetrahydroisoquinolin-2-yl)-2,3-dimethyl-1H-pyrrolo[3,2-b]pyridine hydrochloride]",220 nM
13,"COCn1c(C)c(C)c2nccc(OCc3ccc(Cl)cc3)c21 [Example 74, 7-(4-chlorobenzyloxy)-1-methoxymethyl-2,3-dimethyl-1H-pyrrolo[3,2-b]pyridine hydrochloride]",1080 nM

# More lines, now with the values ahead:
row,IC50,Structure (SMILES)
1,570 nM,"Cc1c(C)n(CC2CCC2)c2c(OCc3cc(F)cc(F)c3)ccnc12 [Example 179, 1-cyclobutylmethyl-7-(3,5-difluorobenzyloxy)-2,3-dimethyl-1H-pyrrolo[3,2-b]pyridine hydrochloride]"
2,450 nM,"Cc1c(C)n(Cc2cccc(Cl)c2)c2c(OCc3ccc(Br)cc3)ccnc12 [Example 226, 7-(4-bromobenzyloxy)-1-(3-chlorobenzyl)-2,3-dimethyl-1H-pyrrolo[3,2-b]pyridine hydrochloride]"
3,1210 nM,"Cc1cccc(Cn2c(C)c(C)c3nccc(OCc4ccc(Br)cc4)c32)c1 [Example 223, 7-(4-bromobenzyloxy)-2,3-dimethyl-1-(3-methylbenzyl)-1H-pyrrolo[3,2-b]pyridine hydrochloride]"
4,1450 nM,"Cc1ccc(Cn2c(C)c(C)c3nccc(NCc4ccc(F)cc4)c32)cc1 [Example 263, N-[1-(4-methylbenzyl)-2,3-dimethyl-1H-pyrrolo[3,2-b]pyridin-7-yl]-4-fluorobenzylamine hydrochloride]"
5,680 nM,"Cc1c(C)n(Cc2ccccc2)c2c(OCc3cc(F)cc(F)c3)ccnc12 [Example 195, 1-benzyl-7-(3,5-difluorobenzyloxy)-2,3-dimethyl-1H-pyrrolo[3,2-b]pyridine hydrochloride]"
6,620 nM,"Cc1c(C)n(Cc2ccccc2F)c2c(OCc3ccc(Br)cc3)ccnc12 [Example 225, 7-(4-bromobenzyloxy)-1-(2-fluorobenzyl)-2,3-dimethyl-1H-pyrrolo[3,2-b]pyridine hydrochloride]"
7,1070 nM,"Cc1c(C)n(Cc2ccc(F)cc2)c2c(OCc3cc(F)cc(F)c3)ccnc12 [Example 184, 7-(3,5-difluorobenzyloxy)-1-(4-fluorobenzyl)-2,3-dimethyl-1H-pyrrolo[3,2-b]pyridine hydrochloride]"
8,120 nM,"Cc1ccc(Cn2c(C)c(C)c3nccc(OCc4ccc(Br)cc4)c32)cc1 [Example 224, 7-(4-bromobenzyloxy)-2,3-dimethyl-1-(4-methylbenzyl)-1H-pyrrolo[3,2-b]pyridine hydrochloride]"
9,3150 nM,"Cc1cccc(COc2ccnc3c(C)c(C)n(Cc4cccc(F)c4)c23)c1 [Example 146, 1-(3-fluorobenzyl)-2,3-dimethyl-7-(3-methylbenzyloxy)-1H-pyrrolo[3,2-b]pyridine hydrochloride]"
10,50 nM,"COCCn1c(C)c(C)c2nccc(OCc3ccc(F)cc3)c21 [Example 126, 7-(4-fluorobenzyloxy)-1-(2-methoxyethyl)-2,3-dimethyl-1H-pyrrolo[3,2-b]pyridine nitrate]"
11,3070 nM,"Cc1nc2c(C)c(C)n(Cc3ccccc3)c2c(OCc2ccc(F)cc2)c1C [Example 264, 1-benzyl-7-(4-fluorobenzyloxy)-2,3,5,6-tetramethyl-1H-pyrrolo[3,2-b]pyridine hydrochloride]"
12,60 nM,"Cc1c(C)n(Cc2cccc(F)c2)c2c(OCc3ccc(Br)cc3)ccnc12 [Example 222, 7-(4-bromobenzyloxy)-1-(3-fluorobenzyl)-2,3-dimethyl-1H-pyrrolo[3,2-b]pyridine hydrochloride]"
13,50 nM,"COCCn1c(C)c(C)c2nccc(OCc3ccc(F)cc3)c21 [Example 132, 7-(4-fluorobenzyloxy)-1-(2-methoxyethyl)-2,3-dimethyl-1H-pyrrolo[3,2-b]pyridine oxalate]"
14,40 nM,"COCCn1c(C)c(C)c2nccc(OCc3ccc(F)cc3)c21 [Example 130, 7-(4-fluorobenzyloxy)-1-(2-methoxyethyl)-2,3-dimethyl-1H-pyrrolo[3,2-b]pyridine malonate]"
15,40 nM,"COCCn1c(C)c(C)c2nccc(OCc3ccc(F)cc3)c21 [Example 129, 7-(4-fluorobenzyloxy)-1-(2-methoxyethyl)-2,3-dimethyl-1H-pyrrolo[3,2-b]pyridine phosphate]"
16,230 nM,"COc1cccc(Cn2c(C)c(C)c3nccc(OCc4ccc5c(c4)OCO5)c32)c1 [Example 119, 7-(benzo[1,3]dioxol-5-ylmethoxy)-1-(3-methoxybenzyl)-2,3-dimethyl-1H-pyrrolo[3,2-b]pyridine hydrochloride]"
17,580 nM,"CCOc1ccccc1COc1ccnc2c(C)c(C)n(CC3CC3)c12 [Example 161, 1-cyclopropylmethyl-7-(2-ethoxybenzyloxy)-2,3-dimethyl-1H-pyrrolo[3,2-b]pyridine hydrochloride]"
18,60 nM,"COCCn1c(C)c(C)c2nccc(OCc3ccc(F)cc3)c21 [Example 123, 7-(4-fluorobenzyloxy)-1-(2-methoxyethyl)-2,3-dimethyl-1H-pyrrolo[3,2-b]pyridine methanesulfonate]"
19,3880 nM,"CCCn1c(C)c(C)c2nccc(OCc3cc(F)cc(F)c3)c21 [Example 182, 7-(3,5-difluorobenzyloxy)-2,3-dimethyl-1-propyl-1H-pyrrolo[3,2-b]pyridine hydrochloride]"
